For series [1], the target named is T1, Cysteinyl leukotriene receptor 1 (Cavia porcellus, UniProt Q2NNR5).
T1 sequence (Q2NNR5 whole entry): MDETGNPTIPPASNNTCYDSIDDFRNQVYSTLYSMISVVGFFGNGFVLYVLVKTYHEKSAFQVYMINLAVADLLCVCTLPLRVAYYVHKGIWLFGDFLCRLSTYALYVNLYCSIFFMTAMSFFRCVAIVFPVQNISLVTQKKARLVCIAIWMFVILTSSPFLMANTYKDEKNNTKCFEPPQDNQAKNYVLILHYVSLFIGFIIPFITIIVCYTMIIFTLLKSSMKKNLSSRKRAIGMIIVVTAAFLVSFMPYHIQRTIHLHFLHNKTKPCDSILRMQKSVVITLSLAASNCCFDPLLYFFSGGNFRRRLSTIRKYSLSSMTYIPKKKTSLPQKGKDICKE
Nature of the series: Concentration required for inhibition of binding of [3H]LTD4 to guinea pig lung membranes. The series is classed as tissue-based, Membrane.

The subject of series [2] is Mus musculus. In words: Peroxisomal enzyme induction in mice after administration of 400 mg/kg perorally for 4 days was determined. It is filed as functional. Conditions: route oral.
In series [3] the test system is Mus musculus. Nature of the series: Liver weight increase in mice after administration of 400 mg/kg perorally for 4 days was determined. The series is classed as functional. Conditions: route oral.
The target of series [4] is T1, Cysteinyl leukotriene receptor 1. Nature of the series: Concentration required for inhibition of binding of [3H]-LTD4 to guinea pig lung membranes (different expt). It is filed as tissue-based, Membrane.
For series [5], the system named is Mus musculus. Nature of the series: Peroxisomal enzyme induction in mice after administration of 200 mg/kg perorally for 4 days was determined. The series is classed as functional. The note with it: route oral.
In series [6] the test system is Mus musculus. Nature of the series: Liver weight increase in mice after administration of 200 mg/kg perorally for 4 days was determined. The series is classed as functional. Conditions: route oral.
The nature of series [7]: Bioavailability in squirrel monkey. It is filed as ADME, organism-based. The note with it: saimiri, in vivo; read-out: Bioavailabiility.
A short description of series [8]: Terminal half-life was determined. It is filed as ADME.
The species entered for series [9] is Cavia porcellus. Nature of the series: Antagonistic activity of leukotriene D4-induced contractions of non-tonal guinea-pig trachea. It is filed as functional, organism-based. The note with it: read-out: pA2 (converted).
Series [10] can be described thus: Reduction in the decrease in dynamic compliance after 4 hr of administration of 0.01 mg/kg to squirrel monkey. It is filed as functional.
Series [11] is described as follows: Reduction of the increase in pulmonary resistance after 4 hr of administration of 0.01 mg/kg to squirrel monkey. It is filed as functional.

What is called IC50 is the concentration needed to halve the response being measured. The half-life is the time needed for the level to fall by half in the phase considered.

In series [1], `CC(S[C@H](CCc1ccccc1C(C)(C)O)c1cccc(/C=C/c2ccc3ccc(Cl)cc3n2)c1)C(C)C(=O)O` (some centres not stated) gave an IC50 of 0.44 nM. The PEI in series [2] is 673%. Besides, the LWI in series [3] stood at 27%.

`C[C@H](CC(=O)O)S[C@H](CCc1ccccc1C(C)(C)O)c1cccc(/C=C/c2ccc3ccc(Cl)cc3n2)c1` displayed an IC50 in series [1] of 0.6 nM. The PEI in series [2] is listed as 109%. Also, in series [3], the LWI is recorded as 12%.

For `CN(C)C(=O)CCS[C@H](SCCC(=O)[O-])c1cccc(/C=C/c2ccc3ccc(Cl)cc3n2)c1.[Na+]`, in series [1], the IC50 worked out at 3.1 nM. Moreover, the PEI in [2] is given as 65%. Besides, in series [3], the LWI amounted to 0%.

In the case of `C[C@H](C(=O)O)[C@@H](C)S[C@H](CCc1ccccc1C(C)(C)O)c1cccc(/C=C/c2ccc3ccc(Cl)cc3n2)c1`, the concentration for half-maximal inhibition (IC50) in [1] was determined as 0.3 nM. The PEI in [2] was found to be 91%. Also, the LWI in [3] is 10%.

For `C[C@H](S[C@H](CCc1ccccc1C(C)(C)O)c1cccc(/C=C/c2ccc3ccc(Cl)cc3n2)c1)[C@@H](C)C(=O)O`, the IC50 in series [1] amounted to 2.3 nM. Further, the PEI in series [2] is on record as 393%. Also, in [3], the LWI is reported as 32%.

As to `CN(C)C(=O)CCSC(SCCC(=O)[O-])c1cccc(/C=C/c2ccc3ccc(Cl)cc3n2)c1.[Na+]` (configuration not stated), the IC50 in series [1] came to 1.5 nM; in series [4], 2.5 nM. Also, the PEI in [2] is 318%. In series [3], this compound showed an LWI of 38%.

`CC(CS[C@H](CCc1ccccc1C(C)(C)O)c1cccc(/C=C/c2ccc3ccc(Cl)cc3n2)c1)CC(=O)O` (some centres not stated) had an IC50 in [1] of 0.43 nM. In addition, the PEI in series [2] was determined as 18%. This compound also had an LWI in series [3] of 10%.

The compound `CC(C)(CS[C@H](CCc1ccccc1C(C)(C)O)c1cccc(/C=C/c2ccc3ccc(Cl)cc3n2)c1)CC(=O)O` returned a concentration for half-maximal inhibition (IC50) in [1] of 0.3 nM. For the same compound, the PEI in series [2] is 25%. Also, the LWI in series [3] stood at 2%.

`CC(CC(=O)O)S[C@H](CCc1ccccc1C(C)(C)O)c1cccc(/C=C/c2ccc3ccc(Cl)cc3n2)c1` (some centres not stated): the IC50 in [1] is 0.79 nM. In [5], the PEI worked out at 22%. In series [6], this compound displayed an LWI of 5%.

In series [1], `CC(C)(CC(=O)O)S[C@H](CCc1ccccc1C(C)(C)O)c1cccc(/C=C/c2ccc3ccc(Cl)cc3n2)c1` registered an IC50 of 0.68 nM. Also, the PEI in [2] was -10%. In series [3], this compound yielded an LWI of 3%.

In series [1], `C[C@@H](CC(=O)O)S[C@H](CCc1ccccc1C(C)(C)O)c1cccc(/C=C/c2ccc3ccc(Cl)cc3n2)c1` yielded a 50% inhibitory concentration (IC50) of 0.33 nM. Also, in series [2], the PEI is given as 24%. In series [3], the LWI was found to be 11%.

Regarding `CC[C@H](CS[C@H](CCc1ccccc1C(C)(C)O)c1cccc(/C=C/c2ccc3ccc(Cl)cc3n2)c1)C(=O)O`, in series [1], the concentration for half-maximal inhibition (IC50) worked out at 0.2 nM. Also, the PEI in series [5] was 608%. In series [6], the LWI came to 63%.

`CCC(CC(=O)O)S[C@H](CCc1ccccc1C(C)(C)O)c1cccc(/C=C/c2ccc3ccc(Cl)cc3n2)c1` (some centres not stated): in series [1], the IC50 was 0.58 nM. Also, the PEI in [2] stood at 188%. This compound registered an LWI in [3] of 9%.

Regarding `CC(C)(O)c1ccccc1CC[C@@H](SCC1(CC(=O)O)CC1)c1cccc(/C=C/c2ccc3ccc(Cl)cc3n2)c1` [MONTELUKAST], the bioavailability in [7] was 42%. In series [8], this compound showed a half-life of 4 h. For the same compound, the Kb in series [9] was 0.501 nM. Moreover, the PEI in series [2] was found to be 16%. For the same compound, the LWI in series [3] was 0%. For the same compound, the Reduction in series [10] was found to be 78%; in series [11] it was 56%.

The values above are taken from ChEMBL document CHEMBL1151076, “Discovery of MK-0476, a potent and orally active leukotriene D4 receptor antagonist devoid of peroxisomal enxyme induction” (Bioorg Med Chem Lett, 1995).
